Tests used:
DENV-1 strain TC974 #666 = assay: Tetravalent RT-qPCR assay, serotype 1; format: cell-based; conditions: Dengue virus, DENV1, 72 h; RT-qPCR serotype 1 TC974#666, Protocol A, Vero cells, day 3
Procedure: (§1) The antiviral activity of the compounds of the invention was tested against DENV-1 strain TC974 #666 (NCPV), DENV-2 strain 16681, DENV-3 strain H87 (NCPV) and DENV-4 strain H241 (NCPV) in a RT-qPCR assay. Therefore, Vero cells were infected with either DENV-1, or -2, or -3, or -4 in the presence or absence of test compounds. At day 3 post-infection, the cells were lysed and cell lysates were used to prepare cDNA of both a viral target (the 3′UTR of DENV; Table 2) and cellular reference gene (β-actin, Table 2). Subsequently, a duplex real time PCR was performed on a Lightcycler480 instrument. The generated Cp value is inversely proportional to the amount of RNA expression of these targets. Inhibition of DENV replication by a test compound results in a shift of Cp's for the 3′UTR gene. On the other hand, if a test compound is toxic to the cells, a similar effect on β-actin expression will be observed. The comparative ΔΔCp method is used to calculate EC50, which is based on the relative gene expression of the target gene (3′UTR) normalized with the cellular housekeeping gene (β-actin). In addition, CC50 values are determined based on the Cp values acquired for the housekeeping gene β-actin.
(§2) The culture medium consisted of minimal essential medium supplemented with 2% of heat-inactivated fetal calf serum, 0.04% gentamycin (50 mg/mL) and 2 mM of L-glutamine. Vero cells, obtained from ECACC, were suspended in culture medium and 75 μL/well was added in 96-well plates (10000 cells/well), which already contain the antiviral compounds. […] In addition, each plate contains wells which are assigned as virus controls (containing cells and virus in the absence of compound) and cell controls (containing cells in the absence of virus and compound). Once the cells were added in the plates, the plates were incubated in a fully humidified incubator (37° C., 5% CO2) until the next day. Dengue viruses serotype-1, 2, 3 and 4 were diluted in order to obtain a Cp of ˜22-24 in the assay. Therefore, 25 μL of virus suspension was added to all the wells containing test compound and to the wells assigned as virus control. In parallel, 25 μL of culture medium was added to the cell controls. Next, the plates were incubated for 3 days in a fully humidified incubator (37° C., 5% CO2). After 3 days, the supernatant was removed from the wells and the cells were washed twice with ice-cold PBS (˜100 μL). The cell pellets within the 96-well plates were stored at −80° C. for at least 1 day. Next, RNA was extracted using the Cells-to-CT™ lysis kit, according to the manufacturer's guideline (Life Technologies). The cell lysates can be stored at −80° C. or immediately used in the reverse transcription step.
(§3) In preparation of the reverse transcription step, mix A (table 3A) was prepared and 7.57 μL/well was dispensed in a 96-well plate. After addition of 5 μL of the cell lysates, a five minute denaturation step at 75° C. was performed (table 3B). Afterwards, 7.43 μL of mix B was added (table 3C) and the reverse transcription step was initiated (table 3D) to generate cDNA.
(§4) Finally, a RT-qPCR mix was prepared, mix C (table 4A), and 22.02 μL/well was dispensed in 96-well LightCycler qPCR plates to which 3 μL of cDNA was added and the qPCR was performed according to the conditions in table 4B on a LightCycler 480.
(§5) Using the LightCycler software and an in-house LIMS system, dose response curves for each compound were calculated and the half maximal effective concentration (EC50) and the half maximal cytotoxic concentration (CC50) were determined (Tables 5-8).

DENV-3 strain H87 = assay: Tetravalent RT-qPCR assay, serotype 3; format: cell-based; conditions: Dengue virus, DENV3, 72 h; RT-qPCR serotype 3 H87, Protocol A, Vero cells, day 3
Procedure: as §1, §2, §3, §4, §5

Vero cells = assay: Toxicity on the same plates (ATPlite cell viability); conditions: Vero cells, same plates as DENV-2 antiviral assay
[1] = Cytotoxicity in RT-qPCR assay (Cp of housekeeping gene β-actin); format: cell-based; conditions: African green monkey
Procedure: as §1, §2, §5

DENV-4 strain H241 = assay: Tetravalent RT-qPCR assay, serotype 4; format: cell-based; conditions: Dengue virus, DENV4, 72 h; RT-qPCR serotype 4 H241, Protocol A, Vero cells, day 3
Procedure: as §1, §2, §3, §4, §5

DENV-2 strain 16681 = assay: Tetravalent RT-qPCR assay, serotype 2; format: cell-based; conditions: Dengue virus, DENV2, 72 h; RT-qPCR serotype 2 16681, Protocol A, Vero cells, day 3
Procedure: as §1, §2, §3, §4, §5

DENV-2 16681 strain = assay: DENV-2 antiviral assay (eGFP-labeled virus in Vero cells); format: cell-based, Dengue virus; conditions: DENV-2 16681 eGFP, MOI 0.5, 3 days
Procedure: The antiviral activity of all the compounds of the invention was tested against the DENV-2 16681 strain which was labeled with enhanced green fluorescent protein (eGPF). The culture medium consists of minimal essential medium supplemented with 2% of heat-inactivated fetal calf serum, 0.04% gentamycin (50 mg/mL) and 2 mM of L-glutamine. Vero cells, obtained from ECACC, were suspended in culture medium and 25 μL was added to 384-well plates (2500 cells/well), which already contain the antiviral compounds. Typically, these plates contain a 5-fold serial dilution of 9 dilution steps of the test compound at 200 times the final concentration in 100% DMSO (200 nL). […] Finally, each plate contains wells which are assigned as virus controls (containing cells and virus in the absence of compound), cell controls (containing cells in the absence of virus and compound) and medium controls (containing medium in the absence of cells, virus and compounds). To the wells assigned as medium control, 25 μL of culture medium was added instead of Vero cells. Once the cells were added to the plates, the plates were incubated for 30 minutes at room temperature to allow the cells to distribute evenly within the wells. Next, the plates were incubated in a fully humidified incubator (37° C., 5% CO2) until the next day. Then, DENV-2 strain 16681, labeled with eGFP, was added at a multiplicity of infection (MOI) of 0.5. Therefore, 15 μL of virus suspension was added to all the wells containing test compound and to the wells assigned as virus control. In parallel, 15 μL of culture medium was added to the medium and cell controls. Next, the plates were incubated for 3 days in a fully humidified incubator (37° C., 5% CO2). At the day of the read out, the eGFP fluorescence was measured using an automated fluorescence microscope at 488 nm (blue laser). Using an in-house LIMS system, inhibition dose response curves for each compound were calculated and the half maximal effective concentration (EC50) was determined. Therefore, the percent inhibition (I) for every test concentration is calculated using the following formula: I=100*([…])/(SVC−SCC); ST, SCC and SVC are the amount of eGFP signal in the test compound, cell control and virus control wells, respectively. The EC50 represents the concentration of a compound at which the virus replication is inhibited with 50%, as measured by a 50% reduction of the eGFP fluorescent intensity compared to the virus control. The EC50 is calculated using linear interpolation (Table 1).

[2] = Toxicity on the same plates (ATPlite cell viability); conditions: African green monkey, CC50, Vero cells, same plates as DENV-2 antiviral assay
[3] = RT-qPCR serotype 1 TC974#666, Protocol A
[4] = RT-qPCR serotype 2 16681, Protocol A
[5] = RT-qPCR serotype 3 H87, Protocol A
[6] = RT-qPCR serotype 4 H241, Protocol A
[7] = Dengue virus, DENV2, Vero, 72 h

Row | SMILES | EC50 (DENV-1 strain TC974 #666) [nM] | EC50 (DENV-3 strain H87) [nM] | CC50 (Vero cells) [nM] | CC50 at 3 days [1, 3] [nM] | CC50 at 3 days [1, 4] [nM] | CC50 at 3 days [1, 5] [nM] | CC50 at 3 days [1, 6] [nM] | EC50 (DENV-4 strain H241) [nM] | EC50 (DENV-2 strain 16681) [nM] | EC50 (DENV-2 16681 strain) [nM] | CC50 [2] [nM] | EC50 (DENV-2 16681 strain; [7]) [nM]
1 | COc1cc(NC(C(=O)c2c[nH]c3cc(F)c(OC(F)(F)F)cc23)c2ccc(F)cc2OC)cc(OCCO)c1 (single isomer, unassigned) [Compound 7B, 2-(4-fluoro-2-methoxyphenyl)-1-(6-fluoro-5-(trifluoromethoxy)-1H-indol-3-yl)-2-((3-(2-hydroxyethoxy)-5-methoxyphenyl)amino)ethanone] | 1.2 | 8.2 | 2400 | > 2500 | > 2500 | > 2500 | 2100 | 52 | 0.55 | 0.53 |  | 
2 | COc1cc(NC(C(=O)c2c[nH]c3ccc(OC(F)(F)F)cc23)c2ccc(Cl)cc2OC)cc(OCCO)c1 (single isomer, unassigned) [Compound 13A, 2-(4-chloro-2-methoxyphenyl)-2-((3-(2-hydroxyethoxy)-5-methoxyphenyl)amino)-1-(5-(trifluoromethoxy)-1H-indol-3-yl)ethanone] | 0.51 | 3.5 |  | 1200 | 2600 | > 2500 | > 2500 | 20 | 0.2 | 0.14 |  | 
3 | COc1cc(NC(C(=O)c2c[nH]c3cc(F)c(C(F)(F)F)cc23)c2ccc(F)cc2OC)cc(OCCO)c1 (single isomer, unassigned) [Compound 3A, 2-(4-fluoro-2-methoxyphenyl)-1-(6-fluoro-5-(trifluoromethyl)-1H-indol-3-yl)-2-((3-(2-hydroxyethoxy)-5-methoxyphenyl)amino)ethanone] | 2.1 | 18 | 2400 | > 2500 | 2600 | > 2500 | > 2500 | 62 | 0.46 | 0.47 |  | 
4 | COc1cc(NC(C(=O)c2c[nH]c3cc(F)c(OC(F)(F)F)cc23)c2ccc(Cl)cc2OC)cc(OCCO)c1 (single isomer, unassigned) [Compound 15B, 2-(4-chloro-2-methoxyphenyl)-1-(6-fluoro-5-(trifluoromethoxy)-1H-indol-3-yl)-2-((3-(2-hydroxyethoxy)-5-methoxyphenyl)amino)ethanone] | 0.46 | 3.2 | 2600 | 1500 | > 2100 | > 2400 | 1600 | 31 | 0.15 | 0.29 |  | 
5 | COc1cc(NC(C(=O)c2c[nH]c3ccc(C(F)(F)F)cc23)c2ccc(Cl)cc2OC)cc(OCCO)c1 (single isomer, unassigned) [Compound 9B, 2-(4-chloro-2-methoxyphenyl)-2-((3-(2-hydroxyethoxy)-5-methoxyphenyl)amino)-1-(5-(trifluoromethyl)-1H-indol-3-yl)ethanone] | 0.88 | 6.3 | 3300 | > 2000 | 3400 | > 2500 | 2700 | 50 | 0.27 | 0.18 |  | 
6 | COc1cc(NC(C(=O)c2c[nH]c3cc(OC)c(OC(F)(F)F)cc23)c2ccc(Cl)cc2OC)cc(OCCO)c1 (single isomer, unassigned) [Compound 14A, 2-(4-chloro-2-methoxyphenyl)-2-((3-(2-hydroxyethoxy)-5-methoxyphenyl)amino)-1-(6-methoxy-5-(trifluoromethoxy)-1H-indol-3-yl)ethanone] | 0.92 | 5.1 | 2500 | > 2100 | 3800 | > 2300 | 1600 | 25 | 0.17 | 0.17 |  | 
7 | COc1cc(NC(C(=O)c2c[nH]c3ccc(C(F)(F)F)cc23)c2ccc(F)cc2OC)cc(OCCO)c1 (single isomer, unassigned) [Compound 1B, 2-(4-fluoro-2-methoxyphenyl)-2-((3-(2-hydroxyethoxy)-5-methoxyphenyl)amino)-1-(5-(trifluoromethyl)-1H-indol-3-yl)ethanone] | 1.3 | 14 |  | 3300 | 3500 | 3200 | 2600 | 50 | 0.41 | 0.62 |  | 
8 | COc1cc(NC(C(=O)c2c[nH]c3cc(F)c(C(F)(F)F)cc23)c2ccc(F)cc2OC)cc(OCCO)c1 (racemic) [Compound 3, 2-(4-fluoro-2-methoxyphenyl)-1-(6-fluoro-5-(trifluoromethyl)-1H-indol-3-yl)-2-((3-(2-hydroxyethoxy)-5-methoxyphenyl)amino)ethanone] |  |  |  |  |  |  |  |  |  |  | 3000 | 0.99
9 | COc1cc(NC(C(=O)c2c[nH]c3c(C)cc(OC(F)(F)F)cc23)c2ccc(F)cc2OC)cc(OCCO)c1 (racemic) [Compound 8, 2-(4-fluoro-2-methoxyphenyl)-2-((3-(2-hydroxyethoxy)-5-methoxyphenyl)amino)-1-(7-methyl-5-(trifluoromethoxy)-1H-indol-3-yl)ethanone] |  |  |  |  |  |  |  |  |  |  | 4700 | 0.41
